Data set [1] concerns the target T1, recombinant, human protein tyrosine phosphatase (PTP) 1B (hPTP1B) (Homo sapiens, UniProt P18031).
T1 construct: made in house
T1 sequence (P18031 1-435): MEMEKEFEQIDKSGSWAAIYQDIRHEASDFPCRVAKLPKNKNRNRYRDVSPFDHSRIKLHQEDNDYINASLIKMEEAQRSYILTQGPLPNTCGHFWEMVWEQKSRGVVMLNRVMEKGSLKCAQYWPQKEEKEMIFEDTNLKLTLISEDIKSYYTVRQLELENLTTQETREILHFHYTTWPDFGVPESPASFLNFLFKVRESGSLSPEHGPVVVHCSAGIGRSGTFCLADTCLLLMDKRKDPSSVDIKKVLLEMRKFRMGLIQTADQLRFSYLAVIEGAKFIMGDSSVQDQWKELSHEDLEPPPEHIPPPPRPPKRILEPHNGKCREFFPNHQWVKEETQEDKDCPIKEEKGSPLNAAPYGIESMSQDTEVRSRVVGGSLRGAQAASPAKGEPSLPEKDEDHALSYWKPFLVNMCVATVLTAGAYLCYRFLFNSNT
Briefly: Inhibition of tri-phosphorylated insulin receptor dodecaphosphopeptide dephosphorylation by hPTP1B. The class given is biochemical. Particulars: 50 μM IR triphosphopeptide substrate, 5 min preincubation and 5 min reaction at 37° C., malachite green-ammonium molybdate phosphate detection.

Broadly, the IC50 is the point on the concentration scale where inhibition reaches its midpoint. For orientation: melting point means the temperature, or range, at which the solid turns liquid.

For the compound `CCCCCCc1cc(-c2ccccc2)c(OCC(=O)O)c(-c2ccccc2)c1` [Example 169, (5′-Hexyl-[1,1′;3′,1″]terphenyl-2′-yloxy)acetic acid], the melting point lay in the range of 87 to 89 °C. In addition, the IC50 in data set [1] came to 905 nM.

Turning to `CCCCCCCCCCCCCCCCCCOc1cc(-c2ccccc2)c(OCC(=O)O)c(-c2ccccc2)c1` [Example 36, (5′-Octadecyloxy-[1,1′;3′,1″]terphenyl-2′-yloxy)-acetic acid], the melting point was 90.5 to 92 °C. Moreover, the IC50 in data set [1] came to 24 nM.

`O=C(NCCCCCCCCc1ccccc1)c1cc(-c2cccc(C(F)(F)F)c2)c(OCCCCc2nnn[nH]2)c(-c2cccc(C(F)(F)F)c2)c1` [Example 198]: the melting point lay within 145.4 to 150.8 °C. Further, the IC50 in data set [1] stood at 217 nM.

As for `O=C(O)COc1c(-c2cccc(Cl)c2)cc(C(=O)NCCCCCCCCOCc2ccc(Cl)cc2)cc1-c1cccc(Cl)c1` [Example 90, {3,3″-Dichloro-5′-[8-(4-chloro-benzyloxy)-octylcarbamoyl]-[1,1′;3′1″]terphenyl-2′-yloxy}acetic acid], the melting point lay within 128 to 131 °C. Moreover, the IC50 in data set [1] amounted to 100 nM.

Regarding `CCCCCCCCCCCCNC(=O)c1cc(-c2ccc(OC)cc2)c(OCC(=O)O)c(-c2cccc(Cl)c2)c1` [Example 10, (3-Chloro-5′-dodecylcarbamoyl-4″-methoxy-[1,1°;3′]terphenyl-2′-yloxy)-acetic acid], the melting point was 114 to 117 °C. The IC50 in data set [1] worked out at 102 nM.

`O=C(O)COc1c(-c2cc(Cl)cc(Cl)c2)cc(C(=O)NCCCCCCc2ccccc2)cc1-c1cc(Cl)cc(Cl)c1` [Example 161, [3,5,3″,5″-Tetrachloro-5′-(6-phenyl-hexylcarbamoyl)-[1,1′;3′,1″]terphenyl-2′-yloxy]acetic acid] registered a melting point of 151 to 159 °C. Besides, in data set [1], the IC50 stood at 33 nM.

For the compound `O=C(O)COc1c(-c2cccc(C(F)(F)F)c2)cc(C(=O)NCCCCCCc2ccccc2)cc1-c1cccc(C(F)(F)F)c1` [Example 189, [5′-(6-Phenyl-hexylcarbamoyl)-3,3″-bis-trifluoromethyl-[1,1′:3′,1″}terphenyl-2′-yloxy]-acetic acid], the melting point lay within 166.5 to 168.8 °C. For the same compound, in data set [1], the IC50 was determined as 336 nM.

`O=C(O)COc1c(-c2cc(Cl)cc(Cl)c2)cc(C(=O)NCCCCCCCCc2ccccc2)cc1-c1cc(Cl)cc(Cl)c1` [Example 160, [3,5,3″,5″-Tetrachloro-5′-(8-phenyl-octylcarbamoyl)-[1,1′;3′,1″]terphenyl-2′-yloxy]acetic acid] came in with a melting point of 139 to 149 °C. Moreover, in data set [1], the IC50 is 54 nM.

`O=C(O)COc1c(-c2cccc(Cl)c2)cc(C(=O)NCCCCCCOC(=O)Nc2ccc(Oc3ccccc3)cc2)cc1-c1cccc(Cl)c1` [Example 95, {3,3″-Dichloro-5′-[6-(4-phenoxy-phenylcarbamoyloxy)-hexylcarbamoyl]-[1,1′;3′1″]terphenyl-2′-yloxy}acetic acid]: the melting point was > 75 °C (dec.). Besides, the IC50 in data set [1] stood at 641 nM.

Turning to `CN(CCCCCCCCc1ccccc1)C(=O)c1cc(-c2cccc(F)c2)c(OCC(=O)O)c(-c2cccc(F)c2)c1` [Example 84], the melting point was > 43 °C (dec.). Besides, the 50% inhibitory concentration (IC50) in data set [1] was 1030 nM.

`O=C(O)COc1c(-c2ccccc2)cc(C(c2ccccc2)(c2ccccc2)c2ccccc2)cc1-c1ccccc1` [Example 174, (5′-Trityl-[1,1′;3′,1″]terphenyl-2′-yloxy)acetic acid] had a melting point of 211 to 214 °C. For the same compound, the IC50 in data set [1] was found to be 633 nM.

On to `CC(C)(C)c1ccc(COCCCCCCNC(=O)c2cc(-c3cccc(C(F)(F)F)c3)c(OCC(=O)O)c(-c3cccc(C(F)(F)F)c3)c2)cc1` [Example 13, {5′-[6-(4-tert-Butyl-benzyloxy)-hexylcarbamoyl]-3,3″-bis-trifluoromethyl-[1,1′;3′,1″]terphenyl-2′-yloxy}-acetic acid], for which the melting point lay within 156 to 158 °C. In addition, in data set [1], the IC50 turned out to be 320 nM.

With `O=C(O)COc1c(-c2cccc(Cl)c2)cc(C(=O)NCCCCCCCCSc2nc3ccccc3o2)cc1-c1cccc(Cl)c1` [Example 87, {5′-[8-(Benzoxazol-2-ylsulfanyl)-octylcarbamoyl]-3,3″-dichloro-[1,1′;3′1″]-terphenyl-2′-yloxy}acetic acid], the melting point is > 68 °C (dec.). Besides, the IC50 in data set [1] was determined as 332 nM.

The compound `O=C(O)COc1c(-c2cccc(Cl)c2)cc(C(=O)NCCCCCCCCn2ccc3cc(F)ccc32)cc1-c1cccc(Cl)c1` [Example 96, {3,3″-Dichloro-5′-[8-(5-fluoro-indol-1-yl)-octylcarbamoyl]-[1,1′;3′1″]terphenyl-2′-yloxy}acetic acid] yielded a melting point of 141 to 144 °C. Moreover, in data set [1], the IC50 was 137 nM.

Consider `COc1ccc(-c2cc(C(=O)NCCCCCCCCc3ccccc3)cc(-c3cccc(Cl)c3)c2OCC(=O)O)cc1` [Example 15, [3″-Chloro-4-methoxy-5′-(8-phenyl-octylcarbamoyl)-[1,1′;3′,1″]terphenyl-2′-yloxy]-acetic acid], for which the melting point was in the range of 79.2 to 80.5 °C. Further, the half-inhibitory concentration (IC50) in data set [1] came to 186 nM.

Compound `COc1cccc(-c2cc(C(=O)NCCCCCCCCc3ccccc3)cc(-c3cccc(OC)c3OCC(=O)O)c2)c1` [Example 17, [3,3″-Dimethoxy-5′-(8-phenyl-octylcarbamoyl)-[1,1′;3′,1″]terphenyl-2-yloxy]-acetic acid] displayed a melting point of 67.3 to 68.7 °C. In addition, the half-maximal inhibitory concentration (IC50) in data set [1] amounted to 284 nM.

On to `CCCCCCCCCCCCNC(=O)c1cc(-c2ccccc2)c(OCC(=O)O)c(-c2ccccc2)c1` [Example 8, (5′-Dodecylcarbamoyl-[1,1′;3′,1″]terphenyl-2′-yloxy)-acetic acid], for which the melting point fell in the range of 150 to 153 °C. Further, in data set [1], the IC50 was 195 nM.

As for `COc1ccc2c(ccn2CCCCCCCCNC(=O)c2cc(-c3cccc(Cl)c3)c(OCC(=O)O)c(-c3cccc(Cl)c3)c2)c1` [Example 97, {3,3″-Dichloro-5′-[8-(5-methoxy-indol-1-yl)-octylcarbamoyl]-[1,1′;3′1″]terphenyl-2′-yloxy}acetic acid], the melting point is > 70 °C (dec.). Besides, in data set [1], the IC50 worked out at 186 nM.

`CCCCCCCCCCCCNC(=O)c1cc(-c2cccc(C(F)(F)F)c2)c(OCC(=O)O)c(-c2cccc(C(F)(F)F)c2)c1` [Example 175, (5′-Dodecylcarbamoyl-3,3″-bis-trifluoromethyl-{1,1′;3′,1″]terphenyl-2′-yloxy)-acetic acid] came in with a melting point of 154.3 to 158.2 °C. Further, the half-inhibitory concentration (IC50) in data set [1] was determined as 50 nM.

In turn, `O=C(O)COc1c(-c2cccc(C(F)(F)F)c2)cc(C(=O)NCCCCCCOCc2ccc(OCc3ccccc3)cc2)cc1-c1cccc(C(F)(F)F)c1` [Example 14, {5′-[6-(4-Benzyloxy-benzyloxy)-hexylcarbamoyl]-3,3″-bis-trifluoromethyl-[1,1′;3′1″]terphenyl-2′-yloxy}-acetic acid] gave a melting point of 127 to 130 °C. In addition, in data set [1], the IC50 is 366 nM.

`O=C(O)COc1c(-c2ccccc2)cc(-c2c3ccccc3cc3sc4ccccc4c23)cc1-c1ccccc1` [Example 37, (5′-Benzo[b]naphtho[2,3-d]thiophen-11-yl-[1,1′;3′,1″]terphenyl-2′-yloxy)-acetic acid]: the melting point was > 136 °C (dec.). For the same compound, in data set [1], the IC50 is 118 nM.

As for `CCCCCCCCCCCCCCOc1cc(-c2ccccc2)c(OCC(=O)O)c(-c2ccccc2)c1` [Example 173, (5′-Tetradecyloxy-[1,1′;3′,1″]terphenyl-2′-yloxy)acetic acid], the melting point was 89 to 90 °C. Also, in data set [1], the IC50 was determined as 28 nM.

`CCCCCCCCCCCCCCCCNc1c(Nc2cc(-c3ccccc3)c(OCC(=O)O)c(-c3ccccc3)c2)c(=O)c1=O` [Example 32, [5′-(2-Hexadecylamino-3,4-dioxo-cyclobut-1-enylamino)-[1,1′;3′,1″]terphenyl-2′-yloxy]-acetic acid] came in with a melting point of 132.5 to 133.7 °C. In addition, in data set [1], the half-inhibitory concentration (IC50) was determined as 17 nM.

With `O=C(O)COc1c(-c2cccc(Cl)c2)cc(C(=O)NCCCCCCCCn2ccc3ccccc32)cc1-c1cccc(Cl)c1` [Example 88, [3,3″-Dichloro-5′-(8-indol-1-yl-octylcarbamoyl)-[1,1′;3′1″]terphenyl-2′-yloxy]acetic acid], the melting point is > 84 °C (dec.). The half-maximal inhibitory concentration (IC50) in data set [1] was determined as 137 nM.

For `Cc1cc(COCCCCCCNC(=O)c2cc(-c3cccc(C(F)(F)F)c3)c(OCC(=O)O)c(-c3cccc(C(F)(F)F)c3)c2)c(C)o1` [Example 30, {5′-[6-(2,5-Dimethyl-furan-3-ylmethoxy)-hexylcarbamoyl]-3,3″-bis-trifluoromethyl-[1,1′;3′,1″]terphenyl-2′-yloxy}-acetic acid], the melting point was 107.9 to 108.5 °C. Besides, in data set [1], the IC50 is 220 nM.

Compound `CCCCCCCCCCCCNC(=O)c1cc(-c2cccc(OC)c2)c(OCC(=O)O)c(-c2cccc(OC)c2)c1` [Example 11, (5′-Dodecylcarbamoyl-3,3″-dimethoxy-[1,1′;3′1″]terphenyl-2′-yloxy)-acetic acid] showed a melting point of 57 to 58 °C. The IC50 in data set [1] stood at 115 nM.

As for `O=C(O)COCCOc1c(-c2cc(Cl)cc(Cl)c2)cc(C(=O)NCCCCCCc2ccccc2)cc1-c1cc(Cl)cc(Cl)c1` [Example 22], the melting point is 78.5 to 79.9 °C. Besides, in data set [1], the IC50 is 250 nM.

The record behind these values is patent publication US7008636B2, “2,3,5-substituted biphenyls useful in the treatment of insulin resistance and hyperglycemia” (Wyeth, priority 1998, dated 2006).
